The target in the test is human STING (Homo sapiens, UniProt Q86WV6). Kind of test: Fluorescence Thermal Shift assay (hSTING FTS binding assay).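 Note: STING preincubated with compound for 20 min in HEPES NaCl buffer pH 7.5.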 Conditions: ΔTm, STING 0.1 mg/mL, SyproOrange, 25 to 99° C. The method, then:
Fluorescence Thermal Shift Assay Compounds of the present invention were tested for binding to human STING in Fluorescence Thermal Shift assay. […] Final STING concentration was 0.1 mg/mL. Thermal unfolding was performed in Real-Time PCR QuantStudio 6 Flex System (Applied Biosystems), from 25 to 99° C., with continuous ramp mode and ramp rate 0.033° C./s. The data were analyzed using Protein Thermal Shift Software (ThermoFisher).
Chain of human STING (Q86WV6 whole entry H232R): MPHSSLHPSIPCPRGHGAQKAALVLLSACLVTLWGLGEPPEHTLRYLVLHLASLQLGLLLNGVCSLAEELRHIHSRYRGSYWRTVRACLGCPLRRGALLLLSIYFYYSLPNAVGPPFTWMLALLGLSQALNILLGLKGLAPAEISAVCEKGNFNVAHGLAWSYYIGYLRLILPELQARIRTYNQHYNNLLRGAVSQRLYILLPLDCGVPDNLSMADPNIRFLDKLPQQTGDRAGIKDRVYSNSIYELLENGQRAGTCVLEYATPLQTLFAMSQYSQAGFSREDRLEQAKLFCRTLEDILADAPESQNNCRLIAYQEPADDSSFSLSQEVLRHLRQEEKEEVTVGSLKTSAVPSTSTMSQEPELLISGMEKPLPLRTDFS
For the molecule `Cc1ccc(N2CCC[C@H](N(Cc3ccnc(C)c3)Cc3cn(C4CC4)c4cc(N5CCC[C@@H](N)C5)c(F)cc4c3=O)C2)cn1` [Example 17, 7-[(3R)-3-Aminopiperidin-1-yl]-1-cyclopropyl-6-fluoro-3-({[(3S)-1-(6-methylpyridin-3-yl)piperidin-3-yl][(2-methylpyridin-4-yl)methyl]amino}methyl)-1,4-dihydroquinolin-4-one], the “hSTING FTS binding assay (ΔT ° C.)” value is on record as “+++ (ΔTm≥20° C.)”.

With `CNC1CCN(c2cc3c(cc2F)c(=O)c(CN(Cc2ccnc(C)c2)[C@H]2CCCN(c4ccc(C)nc4)C2)cn3C2CC2)CC1.Cl` [Example 19, 1-cyclopropyl-6-fluoro-7-[4-(methylamino)piperidin-1-yl]-3-({[(3S)-1-(6-methylpyridin-3-yl)piperidin-3-yl][(2-methylpyridin-4-yl)methyl]amino}methyl)-1,4-dihydroquinolin-4-one Hydrochloride], the “hSTING FTS binding assay (ΔT ° C.)” value is listed as “+++ (ΔTm≥20° C.)”.

`Cc1ccc(N2CCC[C@H](N(Cc3ccnc(C)c3)Cc3cn(C4CC4)c4cc(N5CC[C@@H](CN)C5)c(F)cc4c3=O)C2)cn1.Cl` [Example 20, 7-[(3S)-3-(aminomethyl)pyrrolidin-1-yl]-1-cyclopropyl-6-fluoro-3-({[(3S)-1-(6-methylpyridin-3-yl)piperidin-3-yl][(2-methylpyridin-4-yl)methyl]amino}methyl)-1,4-dihydroquinolin-4-one Hydrochloride]: the “hSTING FTS binding assay (ΔT ° C.)” value is recorded as “+++ (ΔTm≥20° C.)”.

`COCCn1cc(CN(Cc2ccnc(C)c2)[C@H]2CCCN(c3ccc(N)nc3)C2)c(=O)c2ccccc21.Cl` [Example 21, 3-({[(3S)-1-(6-aminopyridin-3-yl)piperidin-3-yl][(2-methylpyridin-4-yl)methyl]amino}methyl)-1-(2-methoxyethyl)-1,4-dihydroquinolin-4-one Hydrochloride]: the “hSTING FTS binding assay (ΔT ° C.)” value is recorded as “+++ (ΔTm≥20° C.)”.

Regarding `Cc1ccc(N2CCC[C@H](N(Cc3ccnc(C)c3)Cc3cn(C4CC4)c4cc(N5CC(N)C6(CC6)C5)c(F)cc4c3=O)C2)cn1.Cl` (stereo partly drawn) [Example 22, 7-{7-amino-5-azaspiro[2.4]heptan-5-yl}-1-cyclopropyl-6-fluoro-3-({[(3S)-1-(6-methylpyridin-3-yl)piperidin-3-yl][(2-methylpyridin-4-yl)methyl]amino}methyl)-1,4-dihydroquinolin-4-one Hydrochloride], the “hSTING FTS binding assay (ΔT ° C.)” value was “+++ (ΔTm≥20° C.)”.

With `Cc1ccc(N2CCC[C@H](N(Cc3ccnc(C)c3)Cc3cn(C)c4cc(N5CC[C@@H](O)C5)ccc4c3=O)C2)cn1` [Example 23, 7-[(3R)-3-hydroxypyrrolidin-1-yl]-1-methyl-3-({[(3S)-1-(6-methylpyridin-3-yl)piperidin-3-yl][(2-methylpyridin-4-yl)methyl]amino}methyl)-1,4-dihydroquinolin-4-one], the “hSTING FTS binding assay (ΔT ° C.)” value is recorded as “++ (10<ΔTm<20° C.)”.

As for `Cc1ccc(N2CCC[C@H](N(Cc3ccnc(C)c3)Cc3cn(C4CC4)c4cc(N5CCC(N)C(F)(F)C5)c(F)cc4c3=O)C2)cn1` (stereo partly drawn) [Example 26, 7-(4-amino-3,3-difluoropiperidin-1-yl)-1-cyclopropyl-6-fluoro-3-({[(3S)-1-(6-methylpyridin-3-yl)piperidin-3-yl][(2-methylpyridin-4-yl)methyl]amino}methyl)-1,4-dihydroquinolin-4-one], the “hSTING FTS binding assay (ΔT ° C.)” value is “+++ (ΔTm≥20° C.)”.

Take `Cc1ccc(N2CCC[C@H](N(Cc3ccnc(C)c3)Cc3cn(C4CC4)c4cc(N5CC(CO)C5)c(F)cc4c3=O)C2)cn1` [Example 27, 1-cyclopropyl-6-fluoro-7-[3-(hydroxymethyl)azetidin-1-yl]-3-({[(3S)-1-(6-methylpyridin-3-yl)piperidin-3-yl][(2-methylpyridin-4-yl)methyl]amino}methyl)-1,4-dihydroquinolin-4-one]: the “hSTING FTS binding assay (ΔT ° C.)” value is “+++ (ΔTm≥20° C.)”.

Regarding `Cc1ccc(N2CCC[C@H](N(Cc3ccnc(C)c3)Cc3cn(C4CC4)c4cc(N5CCC[C@@H](O)C5)c(F)cc4c3=O)C2)cn1.Cl` [Example 28, 1-cyclopropyl-6-fluoro-7-[(3R)-3-hydroxypiperidin-1-yl]-3-({[(3S)-1-(6-methylpyridin-3-yl)piperidin-3-yl][(2-methylpyridin-4-yl)methyl]amino}methyl)-1,4-dihydroquinolin-4-one Hydrochloride], the “hSTING FTS binding assay (ΔT ° C.)” value was “+++ (ΔTm≥20° C.)”.

With `Cc1cc(CN(Cc2cn(C)c3cc(Br)ccc3c2=O)[C@H]2CCCN(c3ccc(N)nc3)C2)ccn1.Cl` [Example 29, 3-({[(3S)-1-(6-aminopyridin-3-yl)piperidin-3-yl][(2-methylpyridin-4-yl)methyl]amino}methyl)-7-bromo-1-methyl-1,4-dihydroquinolin-4-one Hydrochloride], the “hSTING FTS binding assay (ΔT ° C.)” value is “+++ (ΔTm≥20° C.)”.

As for `Cc1ccc(N2CCC[C@H](N(Cc3ccnc(C)c3)Cc3cn(C4CC4)c4cc(N5CCC(F)(CN)C5)c(F)cc4c3=O)C2)cn1` (stereo partly drawn) [Example 30, 7-[3-(aminomethyl)-3-fluoropyrrolidin-1-yl]-1-cyclopropyl-6-fluoro-3-({[(3S)-1-(6-methylpyridin-3-yl)piperidin-3-yl][(2-methylpyridin-4-yl)methyl]amino}methyl)-1,4-dihydroquinolin-4-one], the “hSTING FTS binding assay (ΔT ° C.)” value is “+++ (ΔTm≥20° C.)”.

With `Cc1ccc(N2CCC[C@H](N(Cc3ccnc(C)c3)Cc3cn(C4CC4)c4cc(N5CCC(O)CC5)c(F)cc4c3=O)C2)cn1.Cl` [Example 32, 1-cyclopropyl-6-fluoro-7-(4-hydroxypiperidin-1-yl)-3-({[(3S)-1-(6-methylpyridin-3-yl)piperidin-3-yl][(2-methylpyridin-4-yl)methyl]amino}methyl)-1,4-dihydroquinolin-4-one Hydrochloride], the “hSTING FTS binding assay (ΔT ° C.)” value is recorded as “+++ (ΔTm≥20° C.)”.

For the molecule `CNC1CCN(c2cc3c(cc2F)c(=O)c(CN(Cc2ccnc(C)c2)[C@H]2CCCN(c4ccc(C)nc4)C2)cn3C2CC2)C1` (stereo partly drawn) [Example 33, 1-cyclopropyl-6-fluoro-7-[3-(methylamino)pyrrolidin-1-yl]-3-({[(3S)-1-(6-methylpyridin-3-yl)piperidin-3-yl][(2-methylpyridin-4-yl)methyl]amino}methyl)-1,4-dihydroquinolin-4-one], the “hSTING FTS binding assay (ΔT ° C.)” value was “+++ (ΔTm≥20° C.)”.

On to `Cc1cc(CN(Cc2cn(C(C)C)c3ccccc3c2=O)[C@H]2CCCN(c3ccc(N)nc3)C2)ccn1.Cl` [Example 34, 3-({[(3S)-1-(6-aminopyridin-3-yl)piperidin-3-yl][(2-methylpyridin-4-yl)methyl]amino}methyl)-1-(propan-2-yl)-1,4-dihydroquinolin-4-one Hydrochloride], for which the “hSTING FTS binding assay (ΔT ° C.)” value is reported as “+++ (ΔTm≥20° C.)”.

As to `Cc1cc(CN(Cc2cn(C3COC3)c3ccccc3c2=O)[C@H]2CCCN(c3ccc(N)nc3)C2)ccn1` [Example 35, 3-({[(3S)-1-(6-aminopyridin-3-yl)piperidin-3-yl][(2-methylpyridin-4-yl)methyl]amino}methyl)-1-(oxetan-3-yl)-1,4-dihydroquinolin-4-one], the “hSTING FTS binding assay (ΔT ° C.)” value is “+++ (ΔTm≥20° C.)”.

`Cc1ccc(N2CCC[C@H](N(Cc3ccnc(C)c3)Cc3cn(C4CC4)c4nc(N5CC[C@@H](O)C5)c(F)cc4c3=O)C2)cn1.Cl` [Example 37, 1-cyclopropyl-6-fluoro-7-[(3R)-3-hydroxypyrrolidin-1-yl]-3-({[(3S)-1-(6-methylpyridin-3-yl)piperidin-3-yl][(2-methylpyridin-4-yl)methyl]amino}methyl)-1,4-dihydro-1,8-naphthyridin-4-one Hydrochloride]: the “hSTING FTS binding assay (ΔT ° C.)” value is listed as “+++ (ΔTm≥20° C.)”.

For the molecule `Cc1cc(CN(Cc2cn(C(C)C)c3cc(N4CC[C@@H](O)C4)ccc3c2=O)[C@H]2CCCN(c3ccnnc3)C2)ccn1` [Example 49, 7-[(3R)-3-hydroxypyrrolidin-1-yl]-3-({[(2-methylpyridin-4-yl)methyl][(3S)-1-(pyridazin-4-yl)piperidin-3-yl]amino}methyl)-1-(propan-2-yl)-1,4-dihydroquinolin-4-one], the “hSTING FTS binding assay (ΔT ° C.)” value is given as “+ (ΔTm≤10° C.)”.

In the case of `CN[C@@H]1CCN(c2cc3c(cc2F)c(=O)c(CN(Cc2ccnc(C)c2)[C@H]2CCCN(c4ccc(C)nc4)C2)cn3C2CC2)C1.Cl` [Example 55, 1-Cyclopropyl-6-fluoro-7-[(3R)-3-(methylamino)pyrrolidin-1-yl]-3-({[(3S)-1-(6-methylpyridin-3-yl)piperidin-3-yl][(2-methylpyridin-4-yl)methyl]amino}methyl)-1,4-dihydroquinolin-4-one Hydrochloride], the “hSTING FTS binding assay (ΔT ° C.)” value is “+++ (ΔTm≥20° C.)”.

In the case of `CN[C@H]1CCN(c2cc3c(cc2F)c(=O)c(CN(Cc2ccnc(C)c2)[C@H]2CCCN(c4ccc(C)nc4)C2)cn3C2CC2)C1.Cl` [Example 58, 1-Cyclopropyl-6-fluoro-7-[(3S)-3-(methylamino)pyrrolidin-1-yl]-3-({[(3S)-1-(6-methylpyridin-3-yl)piperidin-3-yl][(2-methylpyridin-4-yl)methyl]amino}methyl)-1,4-dihydroquinolin-4-one Hydrochloride], the “hSTING FTS binding assay (ΔT ° C.)” value is “+++ (ΔTm≥20° C.)”.

For the molecule `Cc1ccc(N2CCC[C@H](N(Cc3ccnc(C)c3)Cc3cn(C4CC4)c4cc(N5CCCC(C(=O)O)C5)c(F)cc4c3=O)C2)cn1` (stereo partly drawn) [Example 66, 1-[1-cyclopropyl-6-fluoro-3-({[(3S)-1-(6-methylpyridin-3-yl)piperidin-3-yl][(2-methylpyridin-4-yl)methyl]amino}methyl)-4-oxo-1,4-dihydroquinolin-7-yl]piperidine-3-carboxylic Acid], the “hSTING FTS binding assay (ΔT ° C.)” value is recorded as “+++ (ΔTm≥20° C.)”.

For the molecule `Cc1ccc(N2CCC[C@H](N(Cc3ccnc(C)c3)Cc3cn(C4CC4)c4cc(N5CCC(C(=O)O)CC5)c(F)cc4c3=O)C2)cn1` [Example 67, 1-[1-cyclopropyl-6-fluoro-3-({[(3S)-1-(6-methylpyridin-3-yl)piperidin-3-yl][(2-methylpyridin-4-yl)methyl]amino}methyl)-4-oxo-1,4-dihydroquinolin-7-yl]piperidine-4-carboxylic Acid], the “hSTING FTS binding assay (ΔT ° C.)” value is recorded as “+++ (ΔTm≥20° C.)”.

(Values after patent US12655124B2, “Heterocyclic compounds as modulators of stimulator of interferon genes (STING)” (RYVU THERAPEUTICS S.A., priority 2019, dated 2026).)
